# Source: the NIST ThermoML archive (doi:10.1021/je034203p)
# ± gives the expanded uncertainty stated by the source.
# What was measured:
# [1] = 298.15 K, 101.3 kPa, Liquid; for viscosity: Capillary tube (Ostwald / Ubbelohde) method
# [2] = xn = mol fraction of the nth substance listed; conditions: 298.15 K, 101.3 kPa, Liquid; for viscosity: Capillary tube (Ostwald / Ubbelohde) method
smiles,measurement,setting,value
ClC(Cl)(Cl)Cl [tetrachloromethane],mass density,[1],1586.1 ± 1.6 kg/m3
same,viscosity,[1],0.9096 ± 0.0095 mPa·s
CCCO [propan-1-ol],mass density,[1],800 ± 0.7 kg/m3
same,viscosity,[1],1.954 ± 0.017 mPa·s
CC(C)=O [acetone],mass density,[1],780.8 ± 0.7 kg/m3
same,viscosity,[1],0.3121 ± 0.0066 mPa·s
CCCCO [butan-1-ol],mass density,[1],806.3 ± 0.7 kg/m3
same,viscosity,[1],2.538 ± 0.023 mPa·s
CO [methanol],mass density,[1],788.1 ± 0.7 kg/m3
same,viscosity,[1],0.5482 ± 0.0075 mPa·s
ClC(Cl)=C(Cl)Cl [tetrachloroethene],mass density,[1],1610.2 ± 1.6 kg/m3
same,viscosity,[1],0.8474 ± 0.0091 mPa·s
CCC(C)O (centres undefined) [butan-2-ol],mass density,[1],804.8 ± 0.7 kg/m3
same,viscosity,[1],3.103 ± 0.028 mPa·s
CCO [ethanol],mass density,[1],787.4 ± 0.7 kg/m3
same,viscosity,[1],1.112 ± 0.011 mPa·s
CCOC(C)=O [ethyl acetate],mass density,[1],894 ± 0.6 kg/m3
same,viscosity,[1],0.4274 ± 0.007 mPa·s
CC(C)O [propan-2-ol],mass density,[1],784.3 ± 0.7 kg/m3
same,viscosity,[1],2.044 ± 0.018 mPa·s
CCC(C)=O [butanone],mass density,[1],797.4 ± 0.7 kg/m3
same,viscosity,[1],0.4011 ± 0.0069 mPa·s
c1ccccc1 [benzene],mass density,[1],869.7 ± 0.6 kg/m3
same,viscosity,[1],0.608 ± 0.0078 mPa·s
ClC=C(Cl)Cl [trichloroethene],mass density,[1],1455.7 ± 1.3 kg/m3
same,viscosity,[1],0.551 ± 0.0075 mPa·s
ClC(Cl)=C(Cl)Cl [tetrachloroethene] + CC(C)=O,viscosity,[2]; x1 = 0.0742,0.3537 ± 0.0067 mPa·s
same,viscosity,[2]; x1 = 0.1529,0.398 ± 0.0069 mPa·s
same,viscosity,[2]; x1 = 0.2362,0.4442 ± 0.0071 mPa·s
same,viscosity,[2]; x1 = 0.3247,0.4942 ± 0.0073 mPa·s
same,viscosity,[2]; x1 = 0.4192,0.5459 ± 0.0075 mPa·s
same,viscosity,[2]; x1 = 0.5201,0.6021 ± 0.0078 mPa·s
same,viscosity,[2]; x1 = 0.6279,0.6581 ± 0.0081 mPa·s
same,viscosity,[2]; x1 = 0.7428,0.7167 ± 0.0084 mPa·s
same,viscosity,[2]; x1 = 0.8671,0.7802 ± 0.0087 mPa·s
same,viscosity,[2]; x1 = 1,0.8474 ± 0.0091 mPa·s
same,mass density,[2]; x1 = 0.0742,862.2 ± 0.6 kg/m3
same,mass density,[2]; x1 = 0.1529,943.8 ± 0.6 kg/m3
same,mass density,[2]; x1 = 0.2362,1025.5 ± 0.6 kg/m3
same,mass density,[2]; x1 = 0.3247,1107.7 ± 0.7 kg/m3
same,mass density,[2]; x1 = 0.4192,1189.6 ± 0.9 kg/m3
same,mass density,[2]; x1 = 0.5201,1272.3 ± 1 kg/m3
same,mass density,[2]; x1 = 0.6279,1356.2 ± 1.2 kg/m3
same,mass density,[2]; x1 = 0.7428,1440.3 ± 1.3 kg/m3
same,mass density,[2]; x1 = 0.8671,1524.6 ± 1.4 kg/m3
same,mass density,[2]; x1 = 1,1610.2 ± 1.6 kg/m3
ClC(Cl)=C(Cl)Cl [tetrachloroethene] + CCCCO,viscosity,[2]; x1 = 0.0901,2.255 ± 0.02 mPa·s
same,viscosity,[2]; x1 = 0.1823,1.986 ± 0.018 mPa·s
same,viscosity,[2]; x1 = 0.2766,1.717 ± 0.015 mPa·s
same,viscosity,[2]; x1 = 0.3727,1.496 ± 0.014 mPa·s
same,viscosity,[2]; x1 = 0.4713,1.314 ± 0.012 mPa·s
same,viscosity,[2]; x1 = 0.5727,1.158 ± 0.011 mPa·s
same,viscosity,[2]; x1 = 0.6759,1.045 ± 0.01 mPa·s
same,viscosity,[2]; x1 = 0.7809,0.9519 ± 0.0098 mPa·s
same,viscosity,[2]; x1 = 0.8891,0.8894 ± 0.0094 mPa·s
same,viscosity,[2]; x1 = 1,0.8474 ± 0.0091 mPa·s
same,mass density,[2]; x1 = 0.0901,885.2 ± 0.6 kg/m3
same,mass density,[2]; x1 = 0.1823,964.3 ± 0.6 kg/m3
same,mass density,[2]; x1 = 0.2766,1043.5 ± 0.6 kg/m3
same,mass density,[2]; x1 = 0.3727,1122.5 ± 0.8 kg/m3
same,mass density,[2]; x1 = 0.4713,1201.7 ± 0.9 kg/m3
same,mass density,[2]; x1 = 0.5727,1283 ± 1 kg/m3
same,mass density,[2]; x1 = 0.6759,1364.2 ± 1.2 kg/m3
same,mass density,[2]; x1 = 0.7809,1444.6 ± 1.3 kg/m3
same,mass density,[2]; x1 = 0.8891,1526 ± 1.5 kg/m3
same,mass density,[2]; x1 = 1,1610.2 ± 1.6 kg/m3
ClC=C(Cl)Cl [trichloroethene] + CCCCO,viscosity,[2]; x1 = 0.1018,2.098 ± 0.019 mPa·s
same,viscosity,[2]; x1 = 0.2033,1.734 ± 0.015 mPa·s
same,viscosity,[2]; x1 = 0.3038,1.429 ± 0.013 mPa·s
same,viscosity,[2]; x1 = 0.4042,1.19 ± 0.011 mPa·s
same,viscosity,[2]; x1 = 0.5046,1.008 ± 0.01 mPa·s
same,viscosity,[2]; x1 = 0.6045,0.8696 ± 0.0093 mPa·s
same,viscosity,[2]; x1 = 0.7042,0.7737 ± 0.0087 mPa·s
same,viscosity,[2]; x1 = 0.8025,0.6878 ± 0.0082 mPa·s
same,viscosity,[2]; x1 = 0.9014,0.6227 ± 0.0079 mPa·s
same,viscosity,[2]; x1 = 1,0.551 ± 0.0075 mPa·s
same,mass density,[2]; x1 = 0.1018,870 ± 0.6 kg/m3
same,mass density,[2]; x1 = 0.2033,934.3 ± 0.6 kg/m3
same,mass density,[2]; x1 = 0.3038,997.5 ± 0.6 kg/m3
same,mass density,[2]; x1 = 0.4042,1061.9 ± 0.7 kg/m3
same,mass density,[2]; x1 = 0.5046,1126.5 ± 0.8 kg/m3
same,mass density,[2]; x1 = 0.6045,1191.4 ± 0.9 kg/m3
same,mass density,[2]; x1 = 0.7042,1257 ± 1 kg/m3
same,mass density,[2]; x1 = 0.8025,1321.9 ± 1.1 kg/m3
same,mass density,[2]; x1 = 0.9014,1388.3 ± 1.2 kg/m3
same,mass density,[2]; x1 = 1,1455.7 ± 1.3 kg/m3
CCCO [propan-1-ol] + ClC(Cl)=C(Cl)Cl,viscosity,[2]; x2 = 0,1.954 ± 0.017 mPa·s
same,mass density,[2]; x2 = 0,800 ± 0.7 kg/m3
c1ccccc1 [benzene] + ClC(Cl)=C(Cl)Cl,viscosity,[2]; x2 = 0,0.608 ± 0.0078 mPa·s
same,mass density,[2]; x2 = 0,869.7 ± 0.6 kg/m3
COC(C)=O [methyl ethanoate],mass density,[1],923.9 ± 0.6 kg/m3
same,viscosity,[1],0.3711 ± 0.0068 mPa·s
Cc1ccccc1 [toluene],mass density,[1],860.5 ± 0.6 kg/m3
same,viscosity,[1],0.5641 ± 0.0076 mPa·s
